Assay results as given in patent publication US9133122B2, “Amide compounds, compositions and uses thereof” (EVOTEC AG, priority 2008, dated 2015).

What was measured:
[1] = molecular target: T1, hP2X3 (Homo sapiens, UniProt P56373); assay: Calcium uptake assay (Ca influx), P2X antagonist assay, P2X3 homomer; assay type: cell-based; conditions: inhibition of agonist-induced calcium influx
T1 construct: expressed in transfected cells
T1 sequence (P56373 1-397): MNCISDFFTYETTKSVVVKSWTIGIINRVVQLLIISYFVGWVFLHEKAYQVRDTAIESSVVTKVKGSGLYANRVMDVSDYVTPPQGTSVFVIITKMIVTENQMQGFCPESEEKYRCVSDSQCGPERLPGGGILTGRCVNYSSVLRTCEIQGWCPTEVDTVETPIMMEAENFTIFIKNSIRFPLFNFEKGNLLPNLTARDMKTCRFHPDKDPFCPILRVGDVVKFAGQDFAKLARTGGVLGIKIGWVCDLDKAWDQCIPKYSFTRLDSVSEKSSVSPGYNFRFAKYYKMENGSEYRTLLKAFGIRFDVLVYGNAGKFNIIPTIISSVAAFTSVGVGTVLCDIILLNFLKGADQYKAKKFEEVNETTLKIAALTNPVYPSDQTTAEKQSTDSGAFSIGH
Summary of the method: (§1)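 Receptors expressed in HEK293 or 1321N1 cells, transiently or stably; heteromer from P2X3 transfected into P2X2-stable line. Fluo-4-type dye in HBSS; compound pre-treatment 1–30 min, then agonist (αβMeATP, ATP or analog) at EC50-90. FLIPR peak minus baseline fluorescence; IC50 by 4-parameter fit, 1 pM–10 μM.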

[2] = molecular target: T2, hP2X2/3H (Homo sapiens, UniProt P56373+Q9UBL9); assay: Calcium uptake assay (Ca influx), P2X antagonist assay, P2X2/3 heteromer; assay type: cell-based; conditions: inhibition of agonist-induced calcium influx
T2 construct: expressed in transfected cells
T2 sequence (P56373 1-397): T1 sequence (P56373 1-397)
T2 sequence (Q9UBL9 1-471): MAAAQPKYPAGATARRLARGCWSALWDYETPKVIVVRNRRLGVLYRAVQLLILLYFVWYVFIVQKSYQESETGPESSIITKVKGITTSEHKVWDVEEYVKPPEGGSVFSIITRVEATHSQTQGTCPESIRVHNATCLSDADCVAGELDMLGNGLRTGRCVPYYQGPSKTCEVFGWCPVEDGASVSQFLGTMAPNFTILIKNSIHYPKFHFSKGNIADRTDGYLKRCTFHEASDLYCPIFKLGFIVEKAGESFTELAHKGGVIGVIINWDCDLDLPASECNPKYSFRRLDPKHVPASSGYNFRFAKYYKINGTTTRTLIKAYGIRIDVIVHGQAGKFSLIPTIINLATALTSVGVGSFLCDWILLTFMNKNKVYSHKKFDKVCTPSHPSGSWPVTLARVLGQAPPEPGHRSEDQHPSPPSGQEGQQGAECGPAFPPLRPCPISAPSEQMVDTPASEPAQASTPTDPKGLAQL
Summary of the method: as §1

SMILES | IC50 [1] [nM] | IC50 [2] [nM]
COc1ccc(-c2cc(C(=O)NCc3ccc(C)nc3)cc(-c3ccc(C)cc3)c2)c(OC)c1 [Compound 9, 2″,4″-Dimethoxy-4-methyl-[1,1′;3′,1″]terphenyl-5′-carboxylic acid (6-methyl-pyridin-3-ylmethyl)-amide] | 484 | 415
Cc1ccc(-c2cc(C(=O)NCc3ccc(C)nc3)cc(-c3ccc(CO)cc3)c2)cc1 [Compound 26, 4″-Hydroxymethyl-4-methyl-[1,1′;3′,1″]terphenyl-5′-carboxylic acid (6-methyl-pyridin-3-ylmethyl)-amide] | 309 | 503
COc1ccccc1-c1cc(C(=O)NCc2ccc(C)nc2)cc(-c2ccc(C)cc2)c1 [Compound 4, 2″-Methoxy-4-methyl-[1,1′;3′,1″]terphenyl-5′-carboxylic acid (6-methyl-pyridin-3-ylmethyl)-amide] | 306 | 1060
Cc1ccc(-c2cc(C(=O)NCc3ccc(C)nc3)cc(-c3cnccc3C#N)c2)nc1 [Compound 46, 3-(4-Cyano-pyridin-3-yl)-5-(5-methyl-pyridin-2-yl)-N-(6-methyl-pyridin-3-ylmethyl)-benzamide] | 7.3 | 8.8
Cc1ccc(-c2cc(C(=O)N[C@H](C)c3cnc(C)nc3)cc(N3CCCC3=O)c2)nc1 [Compound 58, (R)-3-(5-Methylpyridin-2-yl)-N-(1-(2-methylpyrimidin-5-yl)ethyl)-5-(2-oxopyrrolidin-1-yl)benzamide] | 35.3 | 194
Cc1ccc(-c2cc(C(=O)N[C@@H](C)CO)cc(-c3cc(C)ccc3C#N)c2)nc1 [Compound 71, 2′-Cyano-5′-methyl-5-(5-methyl-pyridin-2-yl)-biphenyl-3-carboxylic acid ((S)-2-hydroxy-1-methyl-ethyl)-amide] | 43.6 | 240
Cc1ccc(-c2cc(C(=O)N[C@@H](C)CO)cc(-c3ncccc3C(F)(F)F)c2)nc1 [Compound 81, N-((S)-2-Hydroxy-1-methyl-ethyl)-3-(5-methyl-pyridin-2-yl)-5-(3-trifluoromethyl-pyridin-2-yl)-benzamide] | 48.7 | 1220
Cc1ccc(-c2cc(C(=O)NCc3cnc(C)nc3)cc(N3CCCC3=O)c2)cc1 [Compound 50, 4′-Methyl-5-(2-oxo-pyrrolidin-1-yl)-biphenyl-3-carboxylic acid (2-methyl-pyrimidin-5-ylmethyl)-amide] | 25.9 | 428
Cc1ccc(-c2cc(C(=O)N[C@H](C)c3ccc(C)nc3)cc(N3CCCC3=O)c2)cc1 [Compound 51, 4′-Methyl-5-(2-oxo-pyrrolidin-1-yl)-biphenyl-3-carboxylic acid [(R)-1-(6-methyl-pyridin-3-yl)-ethyl]-amide] | 23.8 | 37
Cc1ncc([C@@H](C)NC(=O)c2cc(-c3ccccn3)cc(-c3ccccc3C#N)c2)cn1 [Compound 43, 2′-Cyano-5-pyridin-2-yl-biphenyl-3-carboxylic acid [(R)-1-(2-methyl-pyrimidin-5-yl)-ethyl]-amide] | 24.1 | 126
Cc1ccc(-c2cc(C(=O)NCc3ccc(C)nc3)cc(-c3cccc(F)c3F)c2)nc1 [Compound 33, 2′,3′-Difluoro-5-(5-methyl-pyridin-2-yl)-biphenyl-3-carboxylic acid (6-methyl-pyridin-3-ylmethyl)-amide] | 122 | 98.7
Cc1ccc(-c2cc(C(=O)NCc3ccc(C)nc3)cc(-c3cccc(N(C)C)c3)c2)cc1 [Compound 23, 3″-Dimethylamino-4-methyl-[1,1′;3′,1″]terphenyl-5′-carboxylic acid (6-methyl-pyridin-3-ylmethyl)-amide] | 431 | 4160
Cc1ccc(-c2cc(C(=O)N[C@H](C)CN3CCOCC3)cc(-c3cc(C(F)(F)F)ccc3C#N)c2)nc1 [Compound 80, (R)-2′-cyano-5-(5-methylpyridin-2-yl)-N-(1-morpholinopropan-2-yl)-5′-(trifluoromethyl)biphenyl-3-carboxamide] | 351 | 218
COCC(CO)NC(=O)c1cc(-c2ccc(C)cn2)cc(-c2cc(C)ccc2C#N)c1 (stereo not shown) [Compound 74, 2′-Cyano-5′-methyl-5-(5-methyl-pyridin-2-yl)-biphenyl-3-carboxylic acid (2-hydroxy-1-methoxymethyl-ethyl)-amide] | 138 | 5580
Cc1ccc(-c2cc(C(=O)NCc3cnc(C)nc3)cc(N3CCCCC3=O)c2)cc1 [Compound 38] | 80.7 | 226
COc1ccccc1-c1cc(C(=O)NCc2ccc(C)nc2)cc(-c2ccc(C)cn2)c1 [Compound 18, 2′-Methoxy-5-(5-methyl-pyridin-2-yl)-biphenyl-3-carboxylic acid (6-methyl-pyridin-3-ylmethyl)-amide] | 53.5 | 70.9
Cc1ncc([C@@H](C)NC(=O)c2cc(-c3ccccn3)cc(-c3ccccc3CO)c2)cn1 [Compound 44, 2′-Hydroxymethyl-5-pyridin-2-yl-biphenyl-3-carboxylic acid [(R)-1-(2-methyl-pyrimidin-5-yl)-ethyl]-amide] | 91.6 | 293
Cc1ccc(-c2cc(C(=O)NCc3ccc(C)nc3)cc(N3CCCC3=O)c2)cc1 [Compound 49, 4′-Methyl-5-(2-oxo-pyrrolidin-1-yl)-biphenyl-3-carboxylic acid (6-methyl-pyridin-3-ylmethyl)-amide] | 34.1 | 205
Cc1ccc(-c2cc(C(=O)NCc3cnc(C)nc3)cc(-c3ccc(C)cn3)c2)nc1 [Compound 29, 3,5-Bis-(5-methyl-pyridin-2-yl)-N-(2-methyl-pyrimidin-5-ylmethyl)-benzamide] | 25.8 | 219
Cc1ccc(-c2cc(C(=O)N[C@H](C)CN3CCOCC3)cc(-c3cc(C)ccc3C#N)c2)nc1 [Compound 73, 2′-Cyano-5′-methyl-5-(5-methyl-pyridin-2-yl)-biphenyl-3-carboxylic acid ((R)-1-methyl-2-morpholin-4-yl-ethyl)-amide] | 104 | 340
